Laboratory results reported in BindingDB's records for patent US11802133 (Hoffmann-La Roche, 2023).

Target: T1, Monoglyceride lipase (Homo sapiens, UniProt Q99685)
T1 sequence (Q99685 whole entry): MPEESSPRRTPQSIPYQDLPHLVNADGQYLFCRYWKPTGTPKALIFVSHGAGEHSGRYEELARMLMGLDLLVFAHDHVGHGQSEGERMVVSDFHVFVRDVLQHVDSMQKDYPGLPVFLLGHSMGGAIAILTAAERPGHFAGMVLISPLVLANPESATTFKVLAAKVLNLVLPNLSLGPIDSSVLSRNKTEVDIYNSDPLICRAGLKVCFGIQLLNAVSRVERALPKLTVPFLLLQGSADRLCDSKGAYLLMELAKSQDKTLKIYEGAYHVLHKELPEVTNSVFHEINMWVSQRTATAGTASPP
Experiment: MAGL Inhibitory Activity Assay
Description: The plate was shaked for 1 min at 2000 rpm (Variomag Teleshake) and then incubated for 15 min at RT. […] The final concentrations in the assay were 1 nM MAGL and 300 μM 4-Nitrophenylacetate. […] A second measurement was then done after incubation for 80 min at RT. From the two measurements, the slope was calculated by subtracting the first from the second measurement.

SMILES | IC50 [nM]
O=C1CO[C@H]2CCN(C(=O)N3CC(CCc4ccc(O)cc4C(F)(F)F)C3)C[C@H]2N1 [US11802133, Example 293] | 30
O=C1CO[C@H]2CCN(C(=O)N3CC(OCc4cccc(OC(F)(F)F)c4)C3)C[C@H]2N1 [US11802133, Example 226] | 45
